One data set has as its system human and canine GABARs. Nature of the data set: Voltage-clamp inhibition, summary over human and canine receptors. The data set is classed as cell-based. To be noted: tested up to 30 μM. How it is done: (§1) Defoliculated X. laevis oocytes ordered from Ecocyte Bioscience (Dortmund, Germany) were microinjected with 15–25 nl of cRNA solution (5–50 ng/μl) per oocyte using an automated injector (Roboinject; Multi Channel Systems MCS GmbH, Reutlingen, Germany) and then incubated at 18 °C. All recordings were made 1–5 days post-cRNA injection and were performed at 18 ± 4 °C. Cells were superfused with OR2 medium (NaCl 88 mM, KCl 2.5 mM, HEPES 5 mM, CaCl2•2H2O 1.8 mM, MgCl2•7H2O 1.0 mM, pH 7.4). To ensure that γ2 subunits were integrated into the heteropentamers, we injected fivefold more γ2 than the other subunit cRNAs. Diazepam is a positive allosteric modulator of GABAR only if γ2 subunits are present. Therefore, we used this method to confirm the presence of human and dog GABAA receptor containing the γ2 subunit.
(§2) Voltage-clamp measurements were performed as described by Rufener et al.. Oocytes were impaled with two electrodes filled with 3 M KCl, and their membrane potentials were maintained at − 80 mV throughout the experiment. […] Recordings were performed using an automated process equipped with standard two-electrode voltage-clamp configuration (HiClamp system; Multi Channel Systems MCS GmbH). Data were filtered at 10 Hz, captured at 100 Hz and analyzed using proprietary data acquisition and analysis software in MATLAB (Mathworks Inc., Natick, MA, USA). Additional analyses were performed using Excel (Microsoft, Redmond, WA, USA). […] Graphing the maximum inward currents against the log of agonist concentration produces typical concentration-activation and concentration-inhibition curves, which can be accurately described using individual Hill equations. The concentration-activation curves were fitted using the following equation: Y=100/1+10^H(logEC50-X) where Y is the normalized response, logEC50 is the logarithm of the concentration of agonist eliciting half-maximal current amplitude, X is the log of the dose or concentration, and H is the slope factor or Hill slope. The same equation was used for the concentration-inhibition curves but logEC50 was replaced by logIC50 (half-maximal inhibitory concentration).
(§3) The agonist and the drug were then washed off for 15 s and the oocyte was exposed again to the same drug concentration for 25 s before increasing to the next concentration.

The target in the next data set is Hsa-GABA α3β2γ2 (Homo sapiens, UniProt P18507+P34903+P47870). Briefly: Two-electrode voltage-clamp inhibition of GABA current, receptor expressed in Xenopus oocytes. The conditions noted are these: Xenopus oocytes, −80 mV, 60 s pre-exposure, co-applied with GABA 1 µM (near EC10).
Excerpt: (§4) Complementary DNA (cDNA) encoding for the human GABAA proteins α1 (NM_001127645.2), α2 (NM_001377146.1), α3 (KJ620007.1), α4 (NM_000809.4), α5 (NM_000810.4), α6 (NM_000811.3), β2 (XM_054352312.1), β3 (M82919.1), γ2 (NM_000816.3) and δ (NM_000815.5) were ordered from Genewiz (www.genewiz.com; Leipzig, Germany); for each gene, GenBank accession numbers are provided in parentheses. When necessary, silent mutations were introduced to break NheI or XhoI internal restriction sites. The corresponding open reading frames (ORF) were cloned into the pT7-TS transcription vector (introducing X. laevis β-globin untranslated cDNA to the 5’ and 3’ ends of the gene), following a procedure described in detail in a previous publication. The same process was used to obtain cDNA encoding canine GABAA proteins α4 (XM_025435560.1), α6 (XM_022417729.1) and δ (XM_005620414.2). Gene α2 (XM_025435664.1), α3 (XM_549343.5), α5 (XM_545805.6) and β3 (XM_025437408.1) were obtained by PCR; GenBank reference accession numbers are provided in parentheses. RNA extraction, cDNA synthesis and PCR amplification were performed as described previously. Total RNA was extracted from a piece of dog brain (Beagle breed; Canis lupus familiaris) from which 1 µg of total RNA (DNase-treated) was reverse-transcribed to cDNA using a (dT)30 primer and SuperScript III Reverse Transcriptase (Invitrogen, Thermo Fisher Scientific, Waltham, MA, USA). Gene-specific primers (Additional file 1: Table S1) were designed using Primer 3 software (http://frodo.wi.mit.edu/). […] The cycling conditions were: 98 °C for 30 s; then 38 cycles of 98 °C for 10 s, 58 °C for 30 s and 72 °C for 90 s; followed by 72 °C for 5 min. The dog subunits α1 (XM_546261.5), β2 (XM_014113040.1) and γ2 (XM_546259.5) had been previously amplified and described in a study by Rufener et al..
as §1
as §2, with “equations.” for “equations. The concentration-activation curves were fitted using the following equation: Y=100/1+10^H(logEC50-X) where Y is the normalized response, logEC50 is the logarithm of the concentration of agonist eliciting half-maximal current amplitude, X is the log of the dose or concentration, and H is the slope factor or Hill slope. The same equation was used for the concentration-inhibition curves but logEC50 was replaced by logIC50 (half-maximal inhibitory concentration).”

A further data set addresses Hsa-GABA α2β3γ2 (Homo sapiens, UniProt P18507+P28472+P47869). Described as above. The conditions noted are these: Xenopus oocytes, −80 mV, 60 s pre-exposure, co-applied with GABA 1 µM (near EC10).
Excerpt: as §4, §1
as §2, with “equations.” for “equations. The concentration-activation curves were fitted using the following equation: Y=100/1+10^H(logEC50-X) where Y is the normalized response, logEC50 is the logarithm of the concentration of agonist eliciting half-maximal current amplitude, X is the log of the dose or concentration, and H is the slope factor or Hill slope. The same equation was used for the concentration-inhibition curves but logEC50 was replaced by logIC50 (half-maximal inhibitory concentration).”

The target in a further data set is Hsa-GABA α6β2γ2 (Homo sapiens, UniProt P18507+P47870+Q16445). Described as above. To be noted: Xenopus oocytes, −80 mV, 60 s pre-exposure, co-applied with GABA 0.3 µM (near EC10).
Excerpt: as §4, §1
as §2, with “equations.” for “equations. The concentration-activation curves were fitted using the following equation: Y=100/1+10^H(logEC50-X) where Y is the normalized response, logEC50 is the logarithm of the concentration of agonist eliciting half-maximal current amplitude, X is the log of the dose or concentration, and H is the slope factor or Hill slope. The same equation was used for the concentration-inhibition curves but logEC50 was replaced by logIC50 (half-maximal inhibitory concentration).”

The next data set has as its target Hsa-GABA α5β2γ2 (Homo sapiens, UniProt P18507+P31644+P47870). The data set is described as above. To be noted: Xenopus oocytes, −80 mV, 60 s pre-exposure, co-applied with GABA 0.3 µM (near EC10).
Excerpt: as §4, §1
as §2, with “equations.” for “equations. The concentration-activation curves were fitted using the following equation: Y=100/1+10^H(logEC50-X) where Y is the normalized response, logEC50 is the logarithm of the concentration of agonist eliciting half-maximal current amplitude, X is the log of the dose or concentration, and H is the slope factor or Hill slope. The same equation was used for the concentration-inhibition curves but logEC50 was replaced by logIC50 (half-maximal inhibitory concentration).”

Another data set addresses Hsa-GABA α2β2γ2 (Homo sapiens, UniProt P18507+P47869+P47870). The description is as above. The conditions noted are these: Xenopus oocytes, −80 mV, 60 s pre-exposure, co-applied with GABA 3 µM (near EC10).
Excerpt: as §4, §1
as §2, with “equations.” for “equations. The concentration-activation curves were fitted using the following equation: Y=100/1+10^H(logEC50-X) where Y is the normalized response, logEC50 is the logarithm of the concentration of agonist eliciting half-maximal current amplitude, X is the log of the dose or concentration, and H is the slope factor or Hill slope. The same equation was used for the concentration-inhibition curves but logEC50 was replaced by logIC50 (half-maximal inhibitory concentration).”

For the next data set, the system named is Hsa-GABARs. Briefly: Voltage-clamp inhibition, summary over the six human subunit combinations. To be noted: at 30 μM, average over Hsa-GABARs. How it is done:
as §1, §2, §3

The next data set deals with Clu-GABARs. Nature of the data set: Voltage-clamp inhibition, summary over the five canine subunit combinations. The data set is classed as cell-based, Canis lupus familiaris. To be noted: at 30 μM. How it is done: as §1, §2, §3
In the next data set the target is Clu-GABA α2β2γ2 (Canis lupus familiaris, UniProt A0A8I3RPG5+A0A8I3S1N5+E2RSQ0). Briefly: Two-electrode voltage-clamp inhibition of GABA current, receptor expressed in Xenopus oocytes. The data set is classed as cell-based. The conditions noted are these: Xenopus oocytes, −80 mV, 60 s pre-exposure, co-applied with GABA 5 µM (near EC10).
Excerpt: as §4, §1
as §2, with “equations.” for “equations. The concentration-activation curves were fitted using the following equation: Y=100/1+10^H(logEC50-X) where Y is the normalized response, logEC50 is the logarithm of the concentration of agonist eliciting half-maximal current amplitude, X is the log of the dose or concentration, and H is the slope factor or Hill slope. The same equation was used for the concentration-inhibition curves but logEC50 was replaced by logIC50 (half-maximal inhibitory concentration).”
For orientation: Two-electrode voltage clamp is typically applied to oocytes expressing channels or transporters.

The target of a further data set is Clu-GABA α1β2γ2 (Canis lupus familiaris, UniProt A0A2H4NNI8+A0A8I3RPG5+E2RSQ0). The data set is described as above. The data set is classed as cell-based. The conditions noted are these: Xenopus oocytes, −80 mV, 60 s pre-exposure, co-applied with GABA 1 µM (near EC10).
Excerpt: as §4, §1
as §2, with “equations.” for “equations. The concentration-activation curves were fitted using the following equation: Y=100/1+10^H(logEC50-X) where Y is the normalized response, logEC50 is the logarithm of the concentration of agonist eliciting half-maximal current amplitude, X is the log of the dose or concentration, and H is the slope factor or Hill slope. The same equation was used for the concentration-inhibition curves but logEC50 was replaced by logIC50 (half-maximal inhibitory concentration).”

For the next data set, the target named is Clu-GABA α2β3γ2 (Canis lupus familiaris, UniProt A0A8I3NUI4+A0A8I3S1N5+E2RSQ0). The description is as above. The data set is classed as cell-based. To be noted: Xenopus oocytes, −80 mV, 60 s pre-exposure, co-applied with GABA 1 µM (near EC10).
Excerpt: as §4, §1
as §2, with “equations.” for “equations. The concentration-activation curves were fitted using the following equation: Y=100/1+10^H(logEC50-X) where Y is the normalized response, logEC50 is the logarithm of the concentration of agonist eliciting half-maximal current amplitude, X is the log of the dose or concentration, and H is the slope factor or Hill slope. The same equation was used for the concentration-inhibition curves but logEC50 was replaced by logIC50 (half-maximal inhibitory concentration).”

Another data set has as its target Clu-GABA α5β2γ2 (Canis lupus familiaris, UniProt A0A8I3PC22+A0A8I3RPG5+E2RSQ0). The data set is described as above. The conditions noted are these: Xenopus oocytes, −80 mV, 60 s pre-exposure, co-applied with GABA 1 µM (near EC10). The data set is classed as cell-based.
Excerpt: as §4, §1
as §2, with “equations.” for “equations. The concentration-activation curves were fitted using the following equation: Y=100/1+10^H(logEC50-X) where Y is the normalized response, logEC50 is the logarithm of the concentration of agonist eliciting half-maximal current amplitude, X is the log of the dose or concentration, and H is the slope factor or Hill slope. The same equation was used for the concentration-inhibition curves but logEC50 was replaced by logIC50 (half-maximal inhibitory concentration).”

For a further data set, the target named is Clu-GABA α3β2γ2 (Canis lupus familiaris, UniProt A0A8I3PRS3+A0A8I3RPG5+E2RSQ0). The data set is described as above. The data set is classed as cell-based. To be noted: Xenopus oocytes, −80 mV, 60 s pre-exposure, co-applied with GABA 0.5 µM (near EC10).
Excerpt: as §4, §1
as §2, with “equations.” for “equations. The concentration-activation curves were fitted using the following equation: Y=100/1+10^H(logEC50-X) where Y is the normalized response, logEC50 is the logarithm of the concentration of agonist eliciting half-maximal current amplitude, X is the log of the dose or concentration, and H is the slope factor or Hill slope. The same equation was used for the concentration-inhibition curves but logEC50 was replaced by logIC50 (half-maximal inhibitory concentration).”

Details of data set [1]: method as in PMID 33733534. The conditions noted are these: oral dosing at 2.5 mg/kg; read-out: Cmax (peak concentration in the bloodstream); cited from earlier work.

Structures are written as SMILES.

Chain of Hsa-GABA α3β2γ2 (P34903 29-492): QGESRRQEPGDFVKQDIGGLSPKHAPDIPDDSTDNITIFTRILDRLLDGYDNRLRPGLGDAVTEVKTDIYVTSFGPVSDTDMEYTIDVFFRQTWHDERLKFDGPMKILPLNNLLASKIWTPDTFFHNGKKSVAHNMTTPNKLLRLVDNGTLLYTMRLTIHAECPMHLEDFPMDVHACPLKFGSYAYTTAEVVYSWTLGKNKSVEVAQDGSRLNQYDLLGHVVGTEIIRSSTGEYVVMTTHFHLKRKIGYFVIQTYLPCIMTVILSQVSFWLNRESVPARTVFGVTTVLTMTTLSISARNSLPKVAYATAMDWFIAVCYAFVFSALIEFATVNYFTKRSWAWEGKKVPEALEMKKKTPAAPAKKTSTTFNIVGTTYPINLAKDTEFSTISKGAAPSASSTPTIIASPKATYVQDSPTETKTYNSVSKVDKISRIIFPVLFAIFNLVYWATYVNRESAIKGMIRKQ
Chain of Hsa-GABA α3β2γ2 (P47870 26-474 isoform P47870-1 limits assumed): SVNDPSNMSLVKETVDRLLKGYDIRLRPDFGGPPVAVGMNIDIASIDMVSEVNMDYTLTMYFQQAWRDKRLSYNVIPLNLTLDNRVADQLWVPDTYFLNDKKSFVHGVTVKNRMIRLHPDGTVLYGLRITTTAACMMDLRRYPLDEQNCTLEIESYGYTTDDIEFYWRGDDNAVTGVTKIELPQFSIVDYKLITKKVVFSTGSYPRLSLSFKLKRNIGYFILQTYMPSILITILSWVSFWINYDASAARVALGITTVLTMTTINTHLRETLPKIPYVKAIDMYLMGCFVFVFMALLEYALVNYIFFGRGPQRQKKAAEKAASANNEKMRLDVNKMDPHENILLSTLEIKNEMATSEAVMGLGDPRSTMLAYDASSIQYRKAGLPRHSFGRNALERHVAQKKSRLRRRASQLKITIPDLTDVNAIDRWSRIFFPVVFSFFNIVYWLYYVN
Chain of Hsa-GABA α3β2γ2 (P18507 40-467 isoform P18507-1 limits assumed): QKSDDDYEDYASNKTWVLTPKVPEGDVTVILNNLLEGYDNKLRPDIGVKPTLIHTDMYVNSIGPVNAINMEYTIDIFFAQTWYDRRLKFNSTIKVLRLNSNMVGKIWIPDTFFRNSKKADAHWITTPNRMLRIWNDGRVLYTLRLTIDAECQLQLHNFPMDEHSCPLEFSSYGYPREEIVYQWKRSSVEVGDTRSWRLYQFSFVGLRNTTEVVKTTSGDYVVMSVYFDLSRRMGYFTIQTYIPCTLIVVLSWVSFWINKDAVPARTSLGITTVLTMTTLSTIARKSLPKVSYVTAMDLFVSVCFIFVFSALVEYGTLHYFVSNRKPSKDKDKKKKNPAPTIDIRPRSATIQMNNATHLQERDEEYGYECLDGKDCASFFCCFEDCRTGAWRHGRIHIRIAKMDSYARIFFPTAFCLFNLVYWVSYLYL
Chain of Clu-GABA α5β2γ2 (A0A8I3PC22 32-462): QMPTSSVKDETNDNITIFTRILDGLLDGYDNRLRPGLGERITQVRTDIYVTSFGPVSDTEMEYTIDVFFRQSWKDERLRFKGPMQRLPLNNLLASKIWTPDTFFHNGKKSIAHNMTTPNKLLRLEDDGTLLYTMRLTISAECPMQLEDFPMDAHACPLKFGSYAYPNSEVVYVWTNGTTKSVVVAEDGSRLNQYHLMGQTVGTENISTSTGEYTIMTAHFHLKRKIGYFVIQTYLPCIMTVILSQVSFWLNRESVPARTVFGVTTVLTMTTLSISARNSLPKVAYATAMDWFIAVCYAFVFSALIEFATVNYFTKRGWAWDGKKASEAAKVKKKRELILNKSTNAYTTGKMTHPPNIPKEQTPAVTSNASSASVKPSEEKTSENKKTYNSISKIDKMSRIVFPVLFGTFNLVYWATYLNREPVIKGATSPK
Chain of Clu-GABA α5β2γ2 (A0A8I3RPG5 25-473): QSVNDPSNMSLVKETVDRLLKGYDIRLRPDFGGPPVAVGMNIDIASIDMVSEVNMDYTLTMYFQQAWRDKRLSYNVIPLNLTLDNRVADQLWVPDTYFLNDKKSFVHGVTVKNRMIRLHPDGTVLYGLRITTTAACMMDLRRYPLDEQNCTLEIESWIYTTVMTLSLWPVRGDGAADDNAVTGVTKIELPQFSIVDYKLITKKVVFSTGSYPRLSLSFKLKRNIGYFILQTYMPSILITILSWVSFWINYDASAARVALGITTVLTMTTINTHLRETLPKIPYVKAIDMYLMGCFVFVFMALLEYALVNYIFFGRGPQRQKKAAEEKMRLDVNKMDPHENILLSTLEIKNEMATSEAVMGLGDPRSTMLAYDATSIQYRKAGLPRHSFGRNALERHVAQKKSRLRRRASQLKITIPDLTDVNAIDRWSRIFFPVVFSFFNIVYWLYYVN
Chain of Clu-GABA α5β2γ2 (E2RSQ0 40-467): as the sequence (P18507 40-467 isoform P18507-1 limits assumed) above
Chain of Hsa-GABA α5β2γ2 (P31644 32-462): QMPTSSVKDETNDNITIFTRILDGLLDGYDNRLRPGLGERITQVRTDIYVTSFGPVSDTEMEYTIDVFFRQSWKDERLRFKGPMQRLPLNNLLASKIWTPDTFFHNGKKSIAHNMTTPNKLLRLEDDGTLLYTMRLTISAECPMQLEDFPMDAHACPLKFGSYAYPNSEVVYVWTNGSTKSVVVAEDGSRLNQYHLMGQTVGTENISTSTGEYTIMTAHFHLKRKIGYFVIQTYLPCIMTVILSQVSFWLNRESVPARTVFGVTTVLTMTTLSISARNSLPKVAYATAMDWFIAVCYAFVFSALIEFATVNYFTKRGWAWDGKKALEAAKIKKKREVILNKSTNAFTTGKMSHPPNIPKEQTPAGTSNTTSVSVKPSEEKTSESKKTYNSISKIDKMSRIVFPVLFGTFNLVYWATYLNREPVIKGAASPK
Chain of Hsa-GABA α5β2γ2 (P47870 26-474 isoform P47870-1 limits assumed): as the sequence (P47870 26-474 isoform P47870-1 limits assumed) above
Chain of Hsa-GABA α5β2γ2 (P18507 40-467 isoform P18507-1 limits assumed): as the sequence (P18507 40-467 isoform P18507-1 limits assumed) above

For the compound `O=C(CNC(=O)c1ccc(C2=NOC(c3cc(Cl)cc(C(F)(F)F)c3)(C(F)(F)F)C2)c2ccccc12)NCC(F)(F)F` (centres unmarked) [Afoxolaner, afoxolaner], in the data set on human and canine GABARs, the “inhibitory effect on human and canine GABARs (in words)” value was “partial to high inhibition”. For the same compound, the IC50 stood at 15 µM at Hsa-GABA α3β2γ2; 20.5 µM on Hsa-GABA α2β3γ2; 11.7 µM against Hsa-GABA α6β2γ2; 6.3 µM against Hsa-GABA α5β2γ2; 9.9 µM on Hsa-GABA α2β2γ2; 20.6 µM against Clu-GABA α2β2γ2. For the same compound, the IC50 at Clu-GABA α1β2γ2 turned out to be 3000 nM; against Clu-GABA α2β3γ2, 15.7 µM; against Clu-GABA α5β2γ2 it was 7.4 µM; against Clu-GABA α3β2γ2, 17.9 µM. For the same compound, the “average GABA current inhibition” value is 59% with Hsa-GABARs and 57% in the data set on Clu-GABARs. In addition, the Cmax in data set [1] was 4.7 µM.

One may read the IC50 as the point on the concentration scale where inhibition reaches its midpoint. A high value points to lower potency.

The record behind these values is publication PMC12144822 (Parasites & Vectors, 2025).
